Reference: PubChem BioAssay (NCI)
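GI50 = concentration required for 50% inhibition of growth. At the TGI there is no net growth.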

Key:
Assay in all cases: NCI-60 cell line screen, 384-well format
786-0 renal = tested on: 786-0 renal
U251 glioblastoma = tested on: U251 glioblastoma
MOLT-4 leukemia = tested on: MOLT-4 leukemia
SW-620 colon = tested on: SW-620 colon
SF-295 CNS = tested on: SF-295 CNS
K-562 leukemia = tested on: K-562 leukemia
LOX IMVI melanoma = tested on: LOX IMVI melanoma
HOP-92 NSCLC = tested on: HOP-92 NSCLC
MDA-MB-231 breast = tested on: MDA-MB-231 breast
NCI-H522 lung = tested on: NCI-H522 lung
HCC-2998 colon = tested on: HCC-2998 colon
DU-145 prostate = tested on: DU-145 prostate
A549 NSCLC = tested on: A549 NSCLC
SNB-19 CNS = tested on: SNB-19 CNS
A498 renal = tested on: A498 renal
COLO 205 colon = tested on: COLO 205 colon
MDA-MB-468 breast = tested on: MDA-MB-468 breast
SK-MEL-5 melanoma = tested on: SK-MEL-5 melanoma
TK-10 renal = tested on: TK-10 renal
CCRF-CEM leukemia = tested on: CCRF-CEM leukemia
IGROV1 ovarian = tested on: IGROV1 ovarian
OVCAR-5 ovarian = tested on: OVCAR-5 ovarian
NCI-H322M lung = tested on: NCI-H322M lung
NCI-H226 lung = tested on: NCI-H226 lung
OVCAR-4 ovarian = tested on: OVCAR-4 ovarian
EKVX NSCLC = tested on: EKVX NSCLC
UACC-257 melanoma = tested on: UACC-257 melanoma
SN12C renal = tested on: SN12C renal
RXF 393 renal = tested on: RXF 393 renal
BT-549 breast = tested on: BT-549 breast
OVCAR-3 ovarian = tested on: OVCAR-3 ovarian
SK-OV-3 ovarian = tested on: SK-OV-3 ovarian
HT29 colon = tested on: HT29 colon
ACHN renal = tested on: ACHN renal
RPMI-8226 leukemia = tested on: RPMI-8226 leukemia
CAKI-1 renal = tested on: CAKI-1 renal
OVCAR-8 ovarian = tested on: OVCAR-8 ovarian
SK-MEL-28 melanoma = tested on: SK-MEL-28 melanoma
M14 melanoma = tested on: M14 melanoma
MALME-3M melanoma = tested on: MALME-3M melanoma
HL-60(TB) leukemia = tested on: HL-60(TB) leukemia
MCF7 breast = tested on: MCF7 breast
NCI-H23 lung = tested on: NCI-H23 lung
MDA-MB-435 melanoma = tested on: MDA-MB-435 melanoma
PC-3 prostate = tested on: PC-3 prostate
UO-31 renal = tested on: UO-31 renal
HCT-15 colon = tested on: HCT-15 colon
KM12 colon = tested on: KM12 colon
HOP-62 NSCLC = tested on: HOP-62 NSCLC
NCI/ADR-RES ovarian = tested on: NCI/ADR-RES ovarian
SR leukemia = tested on: SR leukemia
NCI-H460 NSCLC = tested on: NCI-H460 NSCLC
SF-268 CNS = tested on: SF-268 CNS
SNB-75 CNS = tested on: SNB-75 CNS
HS 578T breast = tested on: HS 578T breast
T-47D breast = tested on: T-47D breast
SF-539 CNS = tested on: SF-539 CNS
UACC-62 melanoma = tested on: UACC-62 melanoma

SMILES: Nc1ncnc2c1c(-c1cccc(OCc3ccccc3)c1)cn2C1CC(CN2CCC2)C1 (stereo unspecified)
- GI50 ([…]-0 renal): 1.61 µM
- TGI (786-0 renal): 2.97 µM
- GI50 (U251 glioblastoma): 1.87 µM
- TGI (U251 glioblastoma): 3.39 µM
- GI50 (MOLT-4 leukemia): 1.77 µM
- TGI (MOLT-4 leukemia): 3.16 µM
- GI50 (SW-620 colon): 1.33 µM
- TGI (SW-620 colon): 2.63 µM
- GI50 (SF-295 CNS): 1.89 µM
- TGI (SF-295 CNS): 3.31 µM
- GI50 (K-562 leukemia): 1.69 µM
- TGI (K-562 leukemia): 3.1 µM
- GI50 (LOX IMVI melanoma): 1.61 µM
- TGI (LOX IMVI melanoma): 2.97 µM
- GI50 (HOP-92 NSCLC): 1.14 µM
- TGI (HOP-92 NSCLC): 2.36 µM
- GI50 (MDA-MB-231 breast): 1.66 µM
- TGI (MDA-MB-231 breast): 3.34 µM
- GI50 (NCI-H522 lung): 1.72 µM
- TGI (NCI-H522 lung): 3.12 µM
- GI50 (HCC-2998 colon): 1.4 µM
- TGI (HCC-2998 colon): 2.72 µM
- GI50 (DU-145 prostate): 2.65 µM
- TGI (DU-145 prostate): 11 µM
- GI50 (A549 NSCLC): 1.55 µM
- TGI (A549 NSCLC): 3.07 µM
- GI50 (SNB-19 CNS): 2.53 µM
- TGI (SNB-19 CNS): 7.28 µM
- GI50 (A498 renal): 1.49 µM
- TGI (A498 renal): 2.83 µM
- GI50 (COLO 205 colon): 0.327 µM
- TGI (COLO 205 colon): 1.44 µM
- GI50 (MDA-MB-468 breast): 1.33 µM
- TGI (MDA-MB-468 breast): 2.63 µM
- GI50 (SK-MEL-5 melanoma): 0.704 µM
- TGI (SK-MEL-5 melanoma): 2 µM
- GI50 (TK-10 renal): 1.61 µM
- TGI (TK-10 renal): 3.24 µM
- GI50 (CCRF-CEM leukemia): 2.08 µM
- TGI (CCRF-CEM leukemia): 3.52 µM
- GI50 (IGROV1 ovarian): 2.18 µM
- TGI (IGROV1 ovarian): 4.87 µM
- GI50 (OVCAR-5 ovarian): 1.3 µM
- TGI (OVCAR-5 ovarian): 2.86 µM
- GI50 (NCI-H322M lung): 1.65 µM
- TGI (NCI-H322M lung): 4.49 µM
- GI50 (NCI-H226 lung): 1.19 µM
- TGI (NCI-H226 lung): 2.96 µM
- GI50 (OVCAR-4 ovarian): 1.89 µM
- TGI (OVCAR-4 ovarian): 4.04 µM
- GI50 (EKVX NSCLC): 1.41 µM
- TGI (EKVX NSCLC): 3.1 µM
- GI50 (UACC-257 melanoma): 1.13 µM
- TGI (UACC-257 melanoma): 2.35 µM
- GI50 (SN12C renal): 2.31 µM
- TGI (SN12C renal): 5.8 µM
- GI50 (RXF 393 renal): 1.59 µM
- TGI (RXF 393 renal): 2.97 µM
- GI50 (BT-549 breast): 1.37 µM
- TGI (BT-549 breast): 2.68 µM
- GI50 (OVCAR-3 ovarian): 1.76 µM
- TGI (OVCAR-3 ovarian): 3.45 µM
- GI50 (SK-OV-3 ovarian): 1.75 µM
- TGI (SK-OV-3 ovarian): 3.16 µM
- GI50 (HT29 colon): 0.336 µM
- TGI (HT29 colon): 1.72 µM
- GI50 (ACHN renal): 1.91 µM
- TGI (ACHN renal): 3.71 µM
- GI50 (RPMI-8226 leukemia): 1.83 µM
- TGI (RPMI-8226 leukemia): 3.23 µM
- GI50 (CAKI-1 renal): 1.65 µM
- TGI (CAKI-1 renal): 3.22 µM
- GI50 (OVCAR-8 ovarian): 1.61 µM
- TGI (OVCAR-8 ovarian): 3.01 µM
- GI50 (SK-MEL-28 melanoma): 1.43 µM
- TGI (SK-MEL-28 melanoma): 2.74 µM
- GI50 (M14 melanoma): 1.62 µM
- TGI (M14 melanoma): 2.98 µM
- GI50 (MALME-3M melanoma): 1.06 µM
- TGI (MALME-3M melanoma): 2.25 µM
- GI50 (HL-60(TB) leukemia): 0.182 µM
- TGI (HL-60(TB) leukemia): 1.03 µM
- GI50 (MCF7 breast): 0.36 µM
- TGI (MCF7 breast): 1.68 µM
- GI50 (NCI-H23 lung): 1.1 µM
- TGI (NCI-H23 lung): 2.49 µM
- GI50 (MDA-MB-435 melanoma): 1.28 µM
- TGI (MDA-MB-435 melanoma): 2.57 µM
- GI50 (PC-3 prostate): 1.8 µM
- TGI (PC-3 prostate): 3.46 µM
- GI50 (UO-31 renal): 1.61 µM
- TGI (UO-31 renal): 3.02 µM
- GI50 (HCT-15 colon): 1.28 µM
- TGI (HCT-15 colon): 2.59 µM
- GI50 (KM12 colon): 1.82 µM
- TGI (KM12 colon): 3.76 µM
- GI50 (HOP-62 NSCLC): 1.82 µM
- TGI (HOP-62 NSCLC): 3.25 µM
- GI50 (NCI/ADR-RES ovarian): 1.76 µM
- TGI (NCI/ADR-RES ovarian): 3.42 µM
- GI50 (SR leukemia): 1.65 µM
- TGI (SR leukemia): 3.02 µM
- GI50 (NCI-H460 NSCLC): 1.34 µM
- TGI (NCI-H460 NSCLC): 2.69 µM
- GI50 (SF-268 CNS): 1.81 µM
- TGI (SF-268 CNS): 3.23 µM
- GI50 (SNB-75 CNS): 1.92 µM
- TGI (SNB-75 CNS): 3.52 µM
- GI50 (HS 578T breast): 1.82 µM
- TGI (HS 578T breast): 3.23 µM
- GI50 (T-47D breast): 1.49 µM
- TGI (T-47D breast): 2.9 µM
- GI50 (SF-539 CNS): 1.76 µM
- TGI (SF-539 CNS): 3.15 µM
- GI50 (UACC-62 melanoma): 1.51 µM
- TGI (UACC-62 melanoma): 2.84 µM
